Laboratory results taken from paper PMC9782297, “Integracides: Tetracyclic Triterpenoids from Fusarium sp.—Their 5-Lipoxygenase Inhibitory Potential and Structure–Activity Relation Using In Vitro and Molecular Docking Studies” (Life, 2022).

These molecules were tested against 5-LOX (5-lipoxygenase) (assay: 5-Lipoxygenase inhibitory assay). Conditions: conc. 0.001, 0.01, 1.0 and 10 µM; zileuton positive control; read-out: 5-LOX inhibition IC50.
Format: biochemical
Experimental: Optical rotation was estimated using a 341LC Perkin-Elmer polarimeter (Perkin-Elmer, Waltham, MA, USA). UV and IR were assessed employing Shimadzu UV/VIS 1601 and IR-400 spectrophotometers (Shimadzu, Kyoto, Japan), respectively. Orbitrap LTQ (ThermoFinnigan, Bremen, Germany) and 850 INOVA BRUKER (Bruker BioSpin, Billerica, MA, USA) were utilized for HRESIMS and NMR measuring. The chromatographic investigation was achieved utilizing SiO260/Sephadex LH-20/RP-18, in addition to a 6-mL RP-18 LiChrolut extraction tube (Merck/Darmstadt/Germany).
IC50s were estimated by regression analysis (GraphPad-InStat 3, GraphPad Software, San Diego, CA, USA). The % 5-LOX inhibition of and IC50s are listed as mean-values ±SD. Statistical significance was analyzed among the samples by one-way-ANOVA and subsequently by Tukey–Kramer test (p < 0.005).

Row | Compound | IC50
1 | C=C(CCC(C)C1(O)CCC2C3=C(C(O)C(OC(C)=O)C21C)C1(C)CC(O)C(OC(C)=O)C(C)(C)C1CC3)C(C)C (stereo not drawn) [Compound 1, integracide L] | 3450 nM
2 | C=C(CC[C@@H](C)[C@H]1CC=C2C3=C([C@@H](O)[C@H](OC(C)=O)[C@@]21C)[C@@]1(C)C[C@@H](O)[C@H](O)C(C)(C)[C@@H]1CC3)C(C)C [Compound 2, integracide B] | 3970 nM
3 | C=C(CCC(C)C1CC=C2C3=C(C(O)C(OC(C)=O)C21C)C1(C)CC(O)C(OC(C)=O)C(C)(C)C1CC3)C(C)C (stereo not drawn) [Compound 3, integracide F] | 2760 nM
4 | C=C(CCC(C)C1CC=C2C3=C(C(O)C(OC(C)=O)C21C)C1(C)CC(O)C(OC(=O)CCCCCCCCCO)C(C)(C)C1CC3)C(C)C (stereo not drawn) [Compound 4, integracide G] | 1180 nM
5 | C=C(CCC(C)C1CC=C2C3=C(C(O)C(OC(C)=O)C21C)C1(C)CC(OC(C)=O)C(OC(C)=O)C(C)(C)C1CC3)C(C)C (stereo not drawn) [Compound 5, integracide H] | 1460 nM
6 | C=C(CCC(C)C1CC=C2C3=C(C(O)C(OC(C)=O)C21C)C1(C)CC(O)C(OC(=O)c2ccc(O)cc2)C(C)(C)C1CC3)C(C)C (stereo not drawn) [Compound 6, integracide J] | 2010 nM
